Reference: patent publication US20180086817A1, “Preventing, Treating or Arresting Alzheimer's, Stroke, Cardiovascular and other Amyloid Related Diseases” (priority 2016, published 2018)

Tests used:
L68Q cystatin C = biological target: T1, L68Q cystatin C (Homo sapiens, UniProt P01034, L94Q); assay: Preliminary trial of N-acetylcysteine in HCCAA patients expressing L68Q cystatin C, with biopsy; type: in vivo
T1 construct: confirmed by genetic screen to express L68Q cystatin C; from tissue; host or cells: HCCAA patients; biopsy (tissue not given)
T1 sequence (P01034 27-146 L94Q): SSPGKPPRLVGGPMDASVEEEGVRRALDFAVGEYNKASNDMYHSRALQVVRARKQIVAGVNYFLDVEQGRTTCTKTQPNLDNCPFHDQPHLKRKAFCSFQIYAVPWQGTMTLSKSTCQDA
Procedure: For an early test of effectiveness of glutathione supportive therapy in the treatment of HCCAA and similar disease involving plaque formation, human trials are planned using accepted and previously approved therapeutic interventions. Initial trials involve n-acetylcysteine based on its chemistry and historical acceptance in human therapies. Doses ranging from as low as 200 mg/day, but at least in the early trials, at higher levels to emphasize effect have been proposed with initial regulatory approvals in high risk HCCAA patients.
Three persons who had been identified through characteristic HCCAA symptoms confirmed by genetic screen to express L68Q cystatin C agreed to participate in a preliminary trial with a prototype drug to support antioxidant and other effects of GSH. N-acetylcysteine was used as a GSH-support/anti-cystatin-C-polymerization archetypical drug for conceptual proof and support of the hypotheses supporting this invention. […] One patient fully complied with the prescribed protocol. Two patients were only partially compliant. The fully compliant patient presented with a 50% reduction in plaques observed on biopsy.
Treatments are continuing, augmented by confirmatory/advisory biopsies. Biopsy intervals may be approximately weekly, but longer intervals are envisioned as sufficient to monitor effects and dosages and to encourage compliance in testing and treatment maintenance. For example, biopsy intervals may be weekly, biweekly, monthly, bimonthly, quarterly, semi-annual, annual, etc. Biopsy appointments may be used both for treatment/disease monitoring, but also to maintain patient attention and interaction. Medical advisory panels and insurance issues may also be considered in determining the frequency and type(s) of biopsies.

cellular glutathione = conditions: cited from earlier work

SMILES | disease course (L68Q cystatin C; all three HCCAA patients (L68Q cystatin C), one fully and two partially compliant) | reduction in plaques observed on biopsy (L68Q cystatin C; fully compliant patient) | aggregated protein previously observed (L68Q cystatin C; one of the partially compliant patients) | disease course (L68Q cystatin C; remaining non-compliant patient) | effect on glutathione over time (cellular glutathione; 25 mg/kg OTC in conjunction with 800 mg/day glutathione IM) | time by which effect wanes in plasma (cellular glutathione; dose of about 22-65 mg/kg, post administration) | cellular glutathione (cellular glutathione; dose of about 22-65 mg/kg, shortly after administration)
CC(=O)N[C@@H](CS)C(=O)O [N-acetylcysteine] | disease arrest | 50% | significant reduction | disease arrest |  |  | 
O=C1N[C@H](C(=O)O)CS1 [OTC, L-2-oxothiazolidine-4-carboxolate] |  |  |  |  | continued effect | ≤ 8 h | double
